Measured values as given in PubChem BioAssay AID248 (DTP/NCI, 2004).
Inconclusive results and toxic doses are left out. Peptide text beside a SMILES is read from it. * marks the point of attachment. Cbz = O=C(OCc1ccccc1)*

Tested on: L1210 leukemia ip in BDF1 mice, survival T/C
Assay: NCI In Vivo Anticancer Drug Screen. Data for tumor model L1210 Leukemia (intraperitoneal) in B6D2F1 (BDF1) mice
Conditions: endpoint: mean survival time, higher = longer survival
Method in brief: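 Survival endpoint. Drug-treated group vs vehicle group, expressed as T divided by C. Tumor passaged by transplantation.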

[1] = dose: 100.0 mg/kg/injection, schedule: Q01DX009 (ip), vehicle: Klucel (hydroxypropylcellulose) (HPC)
[2] = dose: 200.0 mg/kg/injection, schedule: Q01DX009 (ip), vehicle: Klucel (hydroxypropylcellulose) (HPC)
[3] = dose: 400.0 mg/kg/injection, schedule: Q01DX009 (ip), vehicle: Klucel (hydroxypropylcellulose) (HPC)
[4] = dose: 100.0 mg/kg/injection, schedule: Q04DX003 (ip), vehicle: Klucel (hydroxypropylcellulose) (HPC)
[5] = dose: 200.0 mg/kg/injection, schedule: Q04DX003 (ip), vehicle: Klucel (hydroxypropylcellulose) (HPC)
[6] = dose: 400.0 mg/kg/injection, schedule: Q04DX003 (ip), vehicle: Klucel (hydroxypropylcellulose) (HPC)
[7] = dose: 100.0 mg/kg/injection, schedule: Q01DX001 (ip), vehicle: saline with Tween-80
[8] = dose: 200.0 mg/kg/injection, schedule: Q01DX001 (ip), vehicle: saline with Tween-80
[9] = dose: 5.0 mg/kg/injection, schedule: Q01DX001 (ip), vehicle: saline
[10] = dose: 100.0 mg/kg/injection, schedule: Q04DX002 (ip), vehicle: saline with Tween-80
[11] = dose: 200.0 mg/kg/injection, schedule: Q04DX002 (ip), vehicle: saline with Tween-80
[12] = dose: 400.0 mg/kg/injection, schedule: Q04DX002 (ip), vehicle: saline with Tween-80

**Q.** What does the source list for `Cn1cc(C(O)CN2CCCCC2)c2ccccc21` (centres undefined)?
**A.** T/C (dose: 25.0 mg/kg/injection, schedule: Q04DX003 (ip), vehicle: saline with Tween-80): 104 % of control; T/C (dose: 50.0 mg/kg/injection, schedule: Q04DX003 (ip), vehicle: saline with Tween-80): 97 % of control

**Q.** `CC(C)(C)OC(=O)N1Cc2cc3ccccc3nc2C1` was tested. Which T/C (dose: 50.0 mg/kg/injection, schedule: Q01DX009 (ip), vehicle: saline) did it give?
**A.** 98 % of control

**Q.** What about the T/C (dose: 100.0 mg/kg/injection, schedule: Q01DX009 (ip), vehicle: saline) of the same molecule?
**A.** 94 % of control

**Q.** And the T/C (dose: 100.0 mg/kg/injection, schedule: Q04DX003 (ip), vehicle: saline)?
**A.** 96 % of control

**Q.** What about the T/C (dose: 200.0 mg/kg/injection, schedule: Q04DX003 (ip), vehicle: saline) of the same molecule?
**A.** 100 % of control

**Q.** For `O=C(Nc1cc(Cl)ccc1Cl)c1cccc(Cl)c1`, which T/C [1] is on record?
**A.** 93 % of control

**Q.** What about the T/C [2] of the same molecule?
**A.** 100 % of control

**Q.** What about the T/C [3] of the same molecule?
**A.** 97 % of control

**Q.** Which T/C [4] does the source give for `S=C(Nc1ccc(Cl)cc1)Nc1ccc(Cl)cc1` here?
**A.** 108 % of control

**Q.** And the T/C [5]?
**A.** 103 % of control

**Q.** And the T/C [6]?
**A.** 97 % of control

**Q.** How did the T/C [1] turn out when `CCOC(=O)CNC(=O)C(CC(C)C)NC(=O)C1CCCN1C(=O)OCc1ccccc1` (stereo not drawn) (Cbz-Pro-Leu-Gly-OEt; configuration not given here) was run?
**A.** 105 % of control

**Q.** What about the T/C [4] of the same molecule?
**A.** 107 % of control

**Q.** What about the T/C [2] of the same molecule?
**A.** 89 % of control

**Q.** And the T/C [5]?
**A.** 93 % of control

**Q.** And the T/C [3]?
**A.** 110 % of control

**Q.** What about the T/C [6] of the same molecule?
**A.** 98 % of control

**Q.** With `O=C(CSc1cc(Cl)ccc1Cl)Nc1ccc(Cl)cc1Cl` as the molecule, how does the T/C (dose: 100.0 mg/kg/injection, schedule: Q04DX003 (ip), vehicle: carboxymethylcellulose (CMC)) read?
**A.** 92 % of control

**Q.** What about the T/C (dose: 200.0 mg/kg/injection, schedule: Q04DX003 (ip), vehicle: carboxymethylcellulose (CMC)) of the same molecule?
**A.** 95 % of control

**Q.** What does the source list for `CCCCCCC(CCCCCC)c1ccccc1`?
**A.** T/C [7]: 90 % of control; T/C [8]: 93 % of control

**Q.** What does the source list for `O=C(Nc1ccc(Cl)c(Cl)c1)Nc1ccccc1O`?
**A.** T/C [4]: 100 % of control; T/C [5]: 102 % of control; T/C [6]: 100 % of control

**Q.** Which T/C (dose: 100.0 mg/kg/injection, schedule: Q04DX002 (ip), vehicle: Klucel (hydroxypropylcellulose) (HPC)) does the source give for `CC(=O)Nc1ccc(/C=C2N=C(/C=C/c3ccccc3)OC\2=O)cc1` here?
**A.** 94 % of control

**Q.** And the T/C (dose: 200.0 mg/kg/injection, schedule: Q04DX002 (ip), vehicle: Klucel (hydroxypropylcellulose) (HPC))?
**A.** 105 % of control

**Q.** What about the T/C (dose: 400.0 mg/kg/injection, schedule: Q04DX002 (ip), vehicle: Klucel (hydroxypropylcellulose) (HPC)) of the same molecule?
**A.** 90 % of control

**Q.** `CCc1ccc(NC(=O)Nc2ccc(OC)cc2)cc1` was tested. Which T/C (dose: 100.0 mg/kg/injection, schedule: Q01DX009 (ip), vehicle: gum acacia) did it give?
**A.** 97 % of control

**Q.** And the T/C (dose: 100.0 mg/kg/injection, schedule: Q04DX003 (ip), vehicle: gum acacia)?
**A.** 95 % of control

**Q.** What about the T/C (dose: 200.0 mg/kg/injection, schedule: Q01DX009 (ip), vehicle: gum acacia) of the same molecule?
**A.** 92 % of control

**Q.** And the T/C (dose: 200.0 mg/kg/injection, schedule: Q04DX003 (ip), vehicle: gum acacia)?
**A.** 92 % of control

**Q.** What about the T/C (dose: 400.0 mg/kg/injection, schedule: Q01DX009 (ip), vehicle: gum acacia) of the same molecule?
**A.** 91 % of control

**Q.** And the T/C (dose: 400.0 mg/kg/injection, schedule: Q04DX003 (ip), vehicle: gum acacia)?
**A.** 94 % of control

**Q.** How did the T/C [4] turn out when `CCCCOP(=S)(Nc1ccccc1)OCCCC` was run?
**A.** 107 % of control

**Q.** What about the T/C [5] of the same molecule?
**A.** 107 % of control

**Q.** What about the T/C [6] of the same molecule?
**A.** 122 % of control

**Q.** Which T/C [9] does the source give for `Oc1ccc(C2=CSC3=NCCN23)cc1` here?
**A.** 94 % of control

**Q.** What about the T/C (dose: 10.0 mg/kg/injection, schedule: Q01DX001 (ip), vehicle: saline) of the same molecule?
**A.** 93 % of control

**Q.** And the T/C (dose: 20.0 mg/kg/injection, schedule: Q01DX001 (ip), vehicle: saline)?
**A.** 93 % of control

**Q.** And the T/C (dose: 40.0 mg/kg/injection, schedule: Q01DX001 (ip), vehicle: saline)?
**A.** 96 % of control

**Q.** And the T/C (dose: 80.0 mg/kg/injection, schedule: Q01DX001 (ip), vehicle: saline)?
**A.** 104 % of control

**Q.** What does the source list for `CCOC(Nc1ccccc1[N+](=O)[O-])C(=O)c1ccccc1` (centres undefined)?
**A.** T/C (dose: 100.0 mg/kg/injection, schedule: Q01DX001 (ip), vehicle: saline): 91 % of control; T/C (dose: 200.0 mg/kg/injection, schedule: Q01DX001 (ip), vehicle: saline): 86 % of control; T/C (dose: 400.0 mg/kg/injection, schedule: Q01DX001 (ip), vehicle: saline): 89 % of control

**Q.** With `O=[N+]([O-])c1ccc(O)c(CCl)c1` as the molecule, how does the T/C (dose: 50.0 mg/kg/injection, schedule: Q04DX002 (ip), vehicle: saline with Tween-80) read?
**A.** 109 % of control

**Q.** What about the T/C (dose: 100.0 mg/kg/injection, schedule: Q04DX002 (ip), vehicle: DMSO) of the same molecule?
**A.** 107 % of control

**Q.** And the T/C [10]?
**A.** 109 % of control

**Q.** What about the T/C (dose: 200.0 mg/kg/injection, schedule: Q04DX002 (ip), vehicle: DMSO) of the same molecule?
**A.** 86 % of control

**Q.** What about the T/C [11] of the same molecule?
**A.** 98 % of control

**Q.** And the T/C [12]?
**A.** 104 % of control

**Q.** What does the source list for `Cc1c(CNc2ccc(C(=O)NC(CC(=O)O)C(=O)O)cc2)ccc2nc(N)nc(N)c12` (centres undefined)?
**A.** T/C (dose: 0.05 mg/kg/injection, schedule: Q01DX009 (ip), vehicle: other): 122 % of control; T/C (dose: 0.06 mg/kg/injection, schedule: Q01DX009 (ip), vehicle: other): 117 % of control; T/C (dose: 0.1 mg/kg/injection, schedule: Q01DX009 (ip), vehicle: carboxymethylcellulose (CMC)): 94 % of control; T/C (dose: 0.1 mg/kg/injection, schedule: Q01DX009 (ip), vehicle: other): 152 % of control; T/C (dose: 0.19 mg/kg/injection, schedule: Q01DX009 (ip), vehicle: other): 115 % of control; T/C (dose: 0.19 mg/kg/injection, schedule: Q01DX009 (ip), vehicle: water): 175 % of control; T/C (dose: 0.25 mg/kg/injection, schedule: Q01DX009 (ip), vehicle: other): 101 % of control; T/C (dose: 0.38 mg/kg/injection, schedule: Q01DX009 (ip), vehicle: other): 102 % of control; T/C (dose: 0.38 mg/kg/injection, schedule: Q01DX009 (ip), vehicle: water): 116 % of control; T/C (dose: 0.5 mg/kg/injection, schedule: Q02DX005 (ip), vehicle: water): 205 % of control; T/C (dose: 0.75 mg/kg/injection, schedule: Q01DX009 (ip), vehicle: carboxymethylcellulose (CMC)): 91 % of control; T/C (dose: 0.75 mg/kg/injection, schedule: Q01DX009 (ip), vehicle: water): 94 % of control; T/C (dose: 1.0 mg/kg/injection, schedule: Q02DX005 (ip), vehicle: water): 158 % of control; T/C (dose: 1.5 mg/kg/injection, schedule: Q01DX009 (ip), vehicle: water): 98 % of control; T/C (dose: 1.56 mg/kg/injection, schedule: Q01DX001 (ip), vehicle: other): 124 % of control; T/C (dose: 1.69 mg/kg/injection, schedule: Q04DX003 (ip), vehicle: water): 167 % of control; T/C (dose: 3.0 mg/kg/injection, schedule: Q01DX009 (ip), vehicle: water): 97 % of control; T/C (dose: 3.38 mg/kg/injection, schedule: Q04DX003 (ip), vehicle: water): 173 % of control; T/C (dose: 4.0 mg/kg/injection, schedule: Q02DX005 (ip), vehicle: water): 118 % of control; T/C (dose: 6.75 mg/kg/injection, schedule: Q04DX003 (ip), vehicle: water): 195 % of control; T/C (dose: 8.0 mg/kg/injection, schedule: Q02DX005 (ip), vehicle: water): 89 % of control; T/C (dose: 12.5 mg/kg/injection, schedule: Q01DX001 (ip), vehicle: other): 159 % of control; T/C (dose: 13.5 mg/kg/injection, schedule: Q04DX003 (ip), vehicle: water): 224 % of control; T/C (dose: 25.0 mg/kg/injection, schedule: Q01DX001 (ip), vehicle: carboxymethylcellulose (CMC)): 98 % of control; T/C (dose: 25.0 mg/kg/injection, schedule: Q01DX001 (ip), vehicle: other): 98 % of control; T/C (dose: 27.0 mg/kg/injection, schedule: Q04DX003 (ip), vehicle: water): 119 % of control; T/C (dose: 50.0 mg/kg/injection, schedule: Q01DX001 (ip), vehicle: carboxymethylcellulose (CMC)): 155 % of control; T/C (dose: 100.0 mg/kg/injection, schedule: Q01DX001 (ip), vehicle: carboxymethylcellulose (CMC)): 158 % of control

**Q.** How did the T/C [7] turn out when `O=C(O)c1cccn1-c1ccccc1` was run?
**A.** 102 % of control

**Q.** What about the T/C (dose: 100.0 mg/kg/injection, schedule: Q04DX003 (ip), vehicle: other) of the same molecule?
**A.** 96 % of control

**Q.** What about the T/C [8] of the same molecule?
**A.** 103 % of control

**Q.** What about the T/C (dose: 200.0 mg/kg/injection, schedule: Q04DX003 (ip), vehicle: other) of the same molecule?
**A.** 101 % of control

**Q.** What about the T/C (dose: 400.0 mg/kg/injection, schedule: Q01DX001 (ip), vehicle: saline with Tween-80) of the same molecule?
**A.** 96 % of control

**Q.** And the T/C (dose: 400.0 mg/kg/injection, schedule: Q04DX003 (ip), vehicle: other)?
**A.** 89 % of control

**Q.** With `Cc1cc(N)c(C)c2ccncc12` as the molecule, how does the T/C [9] read?
**A.** 103 % of control

**Q.** Which T/C [10] does the source give for `NC(=O)N/N=C(/Cl)C(=O)NNC(N)=O` here?
**A.** 89 % of control

**Q.** What about the T/C [11] of the same molecule?
**A.** 89 % of control

**Q.** What about the T/C [12] of the same molecule?
**A.** 96 % of control
